Non-standard residues stand in square brackets, D forms with d. Residues, ends and D or L forms follow the SMILES beside them.
Legend:
Neuro-2a cells = experiment: Cell death by PI staining and flow cytometry, Neuro-2a; type: cell-based; settings: mouse neuroblastoma, 6 h at 37°C, serum-free medium, Suppl Fig 1
Experimental: Cells (6×10^5 /ml) were incubated in 500 μl serum-free medium with the peptide of interest for 6 h at 37°C in the presence of 5% CO2. The cells were then trypsinized, centrifuged (1500xg, 5 min), washed with PBS and analyzed for cell death using propidium iodide (PI) staining and flow cytometer (Beckton-Dickinson, San Jose, CA) and BD CellQuest Pro software. Apoptotic cell death was also analyzed by PI and annexin V-FITC staining, and by acridine orange and ethidium bromide staining and light microscopy (Olympus LX2-KSP). […]
overnight at 4°C with primary antibodies (sources and After rinsing in water, the sections were counter-stained dilutions used detailed in Table S2) and washed with hematoxylin, and mounted with mounting medium.
PBST. For IHC, endogenous peroxidase activity was Finally, the sections were observed under a microscope blocked by incubating the sections in 3% H2O2 for 15 min. (Leica DM2500) and images were collected at 20× After washing thoroughly with PBST, the sections were magnification with the same light intensity and exposure incubated with the appropriate secondary antibodies for 2 time. Non-specific control experiments were carried out h. […]
Ter-Antp (●) peptide in serum-free appropriate growth medium for 6 h at 37°C. Cells were harvested, washed twice with PBS and cell death was analyzed by propidium iodide (PI) staining and ﬂow cytometry. […]

HK-I-GFP = HK-I-GFP detachment from mitochondria by confocal microscopy, SH-SY5Y; type: cell-based, human; settings: 7 μM, 3 h, serum-free medium, Suppl Fig 2A
Experimental: Mitochondrial VDAC1-based peptides: Attacking oncogenic properties in glioblastoma […]
Cell culture cells were fixed for 15 min using 4% paraformaldehyde prepared in PBS, rinsed with PBS, permabilized with 0.3%
Human glioblastoma U-87MG, U-118MG, CRL- PBST, and stained with DAPI (1:2000). Cell imaging was 2610 (LN-18), U-251MG, human neuroblastoma SH- carried out by confocal microscopy (Olympus 1X81).
SY5Y, mouse glioma GL-261 and mouse neuroblastoma […]
Cellular ATP levels were estimated using a luciferase-based assay (CellTiter-Glo, Promega). […] ATP levels were cytosol was analyzed by immunoblotting. […]
luminescence was recorded using an Infinite M1000 plate peptide (3, 5, 10 μM for 3h), harvested, washed with reader (Tecan, Männedorf, Switzerland). […]
ﬂuoride) containing 0.02% digitonin and incubated for Mitochondrial membrane potential (ΔΨ) was 10 min on ice. Samples were centrifuged at 12,000xg at determined using tetramethylrhodamine methylester 4°C for 10 min to obtain supernatants (cytosolic extracts (TMRM) dye. U-87MG cells (6×10^5/ml) were incubated free of mitochondria) that were analyzed by SDS-PAGE with the indicated concentrations of D-ΔN-Ter-Antp and immuno-probed using anti-hexokinase antibodies, peptide for 3 h, washed twice with PBS, incubated with and then with secondary HRP-conjugated anti-rabbit tetramethylrhodamine methyl ester (TMRM, 800 nM, antibodies. […]

U-87MG xenograft tumors = experiment: TUNEL staining of xenograft tumor sections; type: in vivo, human U-87MG in nude mice; settings: s.c. U-87MG tumor sections; Fig 4A
Excerpt: Red color indicates PI nuclear staining and green color TUNEL staining. B. Representative sections from PBS/DMSO- and peptide-TTs IHC stained for p53, Cyto c, AIF, Caspase 3 and Smac/Diablo and then hematoxylin-stained and visualized by microscopy. C. Tissue lysates obtained from controls and several Tf-D-LP4-TTs were immunoblotted for p53, Caspase 8, Cyto c, Smac/Diablo, Caspase 3 and Bcl-2. D. Quantitative analysis of immunoblots is shown (n=2-4).
Paraffin-embedded -fixed tumors sections were processed for a TUNEL assay using the DeadEnd Fluorometric TUNEL system (Promega) according to the manufacturer's instructions. Sections were deparaffinized, equilibrated in PBS, permeabilized with proteinase K, post-fixed in 4% paraformaldehyde, and incubated in TdT reaction mix for 1 h at 37 °C in the dark. Slides were then washed in 2X SSC buffer and counterstained with propidium iodide (1 μg/ml), and cover-slipped with Vectashield mounting medium. Fluorescent images of apoptotic cells (green) and cell nuclei (red) were captured using a confocal microscope (Olympus 1×81).

Structure (SMILES) | cell death, Neuro-2a (Neuro-2a cells) | HK-I-GFP detachment (fluorescence distribution) (HK-I-GFP) | TUNEL-positive cells (U-87MG xenograft tumors)
CC[C@H](C)[C@H](NC(=O)[C@H](C)NC(=O)[C@@H](N)Cc1c[nH]cn1)C(=O)N[C@@H](Cc1ccc(O)cc1)C(=O)N1CCC[C@H]1C(=O)N[C@@H](CCCNC(=N)N)C(=O)N[C@@H](Cc1c[nH]cn1)C(=O)N[C@@H](CO)C(=O)N[C@@H](Cc1c[nH]c2ccccc12)C(=O)N[C@H](C(=O)N[C@@H](Cc1c[nH]c2ccccc12)C(=O)N[C@@H](CCC(=O)O)C(=O)N[C@H](CCCCN)C(=O)N[C@H](CCCCN)C(=O)N[C@H](CC(C)C)C(=O)N[C@H](CCC(=O)O)C(=O)N[C@@H](C(=O)N[C@H](C)C(=O)N[C@@H](C(=O)N[C@H](CC(N)=O)C(=O)N[C@H](CC(C)C)C(=O)N[C@H](C)C(=O)N[C@H](Cc1c[nH]c2ccccc12)C(=O)N[C@@H](C(=O)N[C@H](C)C(=O)NCC(=O)N[C@H](CC(N)=O)C(=O)N[C@H](CO)C(=O)N[C@H](CC(N)=O)C(=O)N[C@@H](CCCCN)C(=O)N[C@@H](Cc1c[nH]c2ccccc12)C(=O)N[C@H](C(=O)N[C@@H](Cc1c[nH]c2ccccc12)C(=O)N[C@@H](CCCCN)C(=O)O)[C@@H](C)O)[C@H](C)O)C(C)C)[C@H](C)O)[C@@H](C)O [Tf-D-LP4] | effectively induce cell death | became diffuse | the majority of the cells were TUNEL-positive
CC[C@@H](C)[C@@H](NC(=O)[C@@H](CCCCN)NC(=O)[C@H](NC(=O)[C@@H](CCC(N)=O)NC(=O)[C@@H](CCCNC(=N)N)NC(=O)[C@@H](CC(C)C)NC(=O)CNC(=O)[C@@H](Cc1ccccc1)NC(=O)CNC(=O)[C@@H](Cc1ccc(O)cc1)NC(=O)CNC(=O)[C@@H](CCCCN)NC(=O)[C@H](NC(=O)[C@@H](Cc1ccccc1)NC(=O)[C@H](NC(=O)[C@@H](CC(=O)O)NC(=O)[C@H](N)CCCNC(=N)N)C(C)C)[C@H](C)O)[C@H](C)CC)C(=O)N[C@H](Cc1c[nH]c2ccccc12)C(=O)N[C@H](Cc1ccccc1)C(=O)N[C@H](CCC(N)=O)C(=O)N[C@H](CC(N)=O)C(=O)N[C@H](CCCNC(=N)N)C(=O)N[C@H](CCCNC(=N)N)C(=O)N[C@H](CCSC)C(=O)N[C@H](CCCCN)C(=O)N[C@H](Cc1c[nH]c2ccccc12)C(=O)N[C@H](CCCCN)C(=O)N[C@H](CCCCN)C(=O)O [D-ΔN-Ter-Antp] (H-[dR][dD][dV][dF][dT][dK]G[dY]G[dF]G[dL][dR][dQ][dI][dK][dI][dW][dF][dQ][dN][dR][dR][dM][dK][dW][dK][dK]-OH; N-terminus and C-terminus assumed) | effectively induce cell death | became diffuse | the majority of the cells were TUNEL-positive

Reference: paper PMC5458211, “Mitochondrial VDAC1-based peptides: Attacking oncogenic properties in glioblastoma” (Oncotarget, 2017)
